Here are results for two molecules from patent US20110294861A1, “METHOD OF TREATMENT OF HEREDITARY HEMOCHROMATOSIS” (NOVARTIS AG, priority 2006, published 2011).

The subject of data set [1] is HJV−/− mice. Put plainly: Iron overload in a murine model of juvenile hemochromatosis (organ iron by ICP-OES). It is filed as in vivo. The procedure: Compound I, a novel tridentate oral iron chelator, is effective in the treatment of patients with transfusional iron overload and it has not been investigated in primary iron overload. We sought to examine spontaneous iron loading and the effect of Compound I upon the removal of iron in HJV−/− mice with iron overload.
Methods: Inductively-Coupled Plasma Optical Emission Spectrometry (ICP-OES, measurement of elemental iron) determinations in liver, heart, spleen and pancreas were performed at week 8 (study start), 14, 20 and 28 in HJV−/− and wild type (wt) mice (n=6-8), subsequent to MRI measurements in heart and liver. Starting at week 20 three groups of HJV−/− animals received daily 0 (vehicle), 30 or 100 mg/kg Compound I, control wt-mice remained untreated. Iron loading was observed up to 28 weeks (including vehicle group) and the effects of Compound I were assessed by comparing the 28-week groups. MRI R2* measurements were performed using a 4.7T MR imager. For the myocardial and hepatic R2* assessments single slice, ECG gated gradient echo images and single slice transversal gradient echo images were acquired, respectively.

Data set [2] is described as follows: Plasma half life within the human body. It is filed as in vivo.
The nature of data set [3]: Exposure of Compound I in mice compared with human studies. It is filed as in vivo. The settings on record: mice versus human studies.
The conditions of data set [4]: in vivo; cited from earlier work.
For data set [5] the following is noted: subcutaneous, 3 patients with HH; compared with weekly phlebotomy, e.g. 500 ml; cited from earlier work.
Setting [6] is: 100 mg/kg daily, week 20 to 28, HJV−/− mice, ICP-OES.
[7] abbreviates: hemojuvelin knock out mouse, within 8 weeks of treatment (conclusion).

With `O=C(O)c1ccc(-n2nc(-c3ccccc3O)nc2-c2ccccc2O)cc1` [Compound I, 4-[3,5-bis(2-hydroxyphenyl)-[1,2,4]triazol-1-yl]benzoic acid], the “effects on organ iron load” value in data set [1] (30 mg/kg daily, HJV−/− mice) was “modest”. Besides, in data set [1] (100 mg/kg daily, HJV−/− mice), the “effects on organ iron load in liver and heart” value is “quite pronounced”; the pancreas iron entry is recorded as “clear trend to lower levels”. Further, in data set [1] (setting [6]), the “heart iron reduced as compared to the (HJV−/−)-vehicle treated group” value is reported as 41% and the “liver iron reduced as compared to the (HJV−/−)-vehicle treated group” value is on record as 63%. Also, in data set [1] (setting [7]), the “liver and heart iron” value is recorded as “significantly reduced”; the pancreatic iron load entry was “trend to improvement”. Besides, the half-life in data set [2] is 8 to 16 h. In addition, the “lower exposure in mice” value in data set [3] is recorded as 6-9 times.

In the case of `CC(=O)N(O)CCCCCNC(=O)CCC(=O)N(O)CCCCCNC(=O)CCC(=O)N(O)CCCCCN` [DFO, desferrioxamine], the “half life within the bloodstream” value in data set [4] was “short”. Besides, the “effectiveness of treatment of iron overload” value in data set [5] is listed as “as effective as weekly phlebotomy”.

Broadly, the half-life is the time in which the quantity being followed falls by half. Low values mean rapid decline, high ones slow decline.
